From ChEMBL document CHEMBL1909046, “DrugMatrix in vitro pharmacology data”

Key:
[1] = target: T1, Muscarinic acetylcholine receptor M2 (Homo sapiens, UniProt P08172); type: cell membranes, CHO-K1, Membrane; settings: cho-k1; further: in other assays of this panel Not Active means under 50% inhibition at 10 µM
T1 sequence (P08172 whole entry): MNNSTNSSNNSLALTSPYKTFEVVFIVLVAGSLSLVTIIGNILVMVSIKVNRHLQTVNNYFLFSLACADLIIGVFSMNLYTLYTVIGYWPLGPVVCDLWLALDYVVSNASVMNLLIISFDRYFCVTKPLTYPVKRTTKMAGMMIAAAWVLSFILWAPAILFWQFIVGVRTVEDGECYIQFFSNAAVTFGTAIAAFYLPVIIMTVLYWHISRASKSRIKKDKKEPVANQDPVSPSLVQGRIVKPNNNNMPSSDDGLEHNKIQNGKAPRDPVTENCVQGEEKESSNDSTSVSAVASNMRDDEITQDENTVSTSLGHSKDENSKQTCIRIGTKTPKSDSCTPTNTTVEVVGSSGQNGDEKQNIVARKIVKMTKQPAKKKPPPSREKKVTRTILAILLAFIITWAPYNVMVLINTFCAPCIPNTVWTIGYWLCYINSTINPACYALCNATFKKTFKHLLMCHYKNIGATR

Leukotriene C4 synthase = target: T2, Leukotriene C4 synthase (Cavia porcellus, UniProt A6XA80); type: tissue-based, Lung;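 further: enzyme inhibition assay of leukotriene C4 synthase, using LTA4 as the substrate; in other assays of this panel Not Active means under 50% inhibition at 10 µM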
T2 sequence (A6XA80 whole entry): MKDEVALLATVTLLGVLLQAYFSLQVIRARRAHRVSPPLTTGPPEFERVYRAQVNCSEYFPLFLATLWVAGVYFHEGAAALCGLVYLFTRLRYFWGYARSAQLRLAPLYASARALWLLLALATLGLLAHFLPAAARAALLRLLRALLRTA

[2] = DRUGMATRIX: Calcium Channel Type L, Benzothiazepine radioligand binding (ligand: [3H] Diltiazem); type: cell membranes, Rattus norvegicus, Wistar, Brain, Membrane; settings: Not Active = under 50% inhibition at 10 µM
[3] = DRUGMATRIX: Glutamate, NMDA, Phencyclidine radioligand binding (ligand: [3H] TCP); type: cell membranes, Rattus norvegicus, Wistar, Cerebral cortex, Membrane; settings: Not Active = under 50% inhibition at 10 µM
[4] = target: Platelet-activating factor receptor (Homo sapiens, UniProt P25105); assay: biochemical; type: tissue-based; settings: platelet; further: in other assays of this panel Not Active means under 50% inhibition at 10 µM
[5] = target: Sodium-dependent dopamine transporter (Homo sapiens, UniProt Q01959); assay: DRUGMATRIX: Dopamine Transporter radioligand binding (ligand: [125I] RTI-55); type: cell membranes, CHO-K1, Membrane; settings: cho-k1; Not Active = under 50% inhibition at 10 µM
[6] = DRUGMATRIX: Glutamate, NMDA, Agonism radioligand binding (ligand: [3H] CGP-39653); type: cell membranes, Rattus norvegicus, Wistar, Cerebral cortex, Membrane; settings: Not Active = under 50% inhibition at 10 µM
[7] = target: T3, C-X-C chemokine receptor type 2 (Homo sapiens, UniProt P25025); type: cell membranes, Membrane; settings: cho-k1; further: in other assays of this panel Not Active means under 50% inhibition at 10 µM
T3 sequence (P25025 whole entry): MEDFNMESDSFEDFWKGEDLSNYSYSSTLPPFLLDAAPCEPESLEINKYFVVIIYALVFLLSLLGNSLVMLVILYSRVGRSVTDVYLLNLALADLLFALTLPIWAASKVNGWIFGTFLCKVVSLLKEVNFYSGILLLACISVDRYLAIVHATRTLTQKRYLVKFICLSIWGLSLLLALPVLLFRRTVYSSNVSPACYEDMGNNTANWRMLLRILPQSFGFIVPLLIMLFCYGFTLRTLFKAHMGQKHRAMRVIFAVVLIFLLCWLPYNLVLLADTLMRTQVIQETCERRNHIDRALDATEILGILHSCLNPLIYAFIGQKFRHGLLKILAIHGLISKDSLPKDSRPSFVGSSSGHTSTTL

[8] = target: Protein phosphatase 3 catalytic subunit alpha (Homo sapiens, UniProt Q08209); design: species or system Escherichia coli

Sodium-dependent dopamine transporter, sequence (Q01959 whole entry): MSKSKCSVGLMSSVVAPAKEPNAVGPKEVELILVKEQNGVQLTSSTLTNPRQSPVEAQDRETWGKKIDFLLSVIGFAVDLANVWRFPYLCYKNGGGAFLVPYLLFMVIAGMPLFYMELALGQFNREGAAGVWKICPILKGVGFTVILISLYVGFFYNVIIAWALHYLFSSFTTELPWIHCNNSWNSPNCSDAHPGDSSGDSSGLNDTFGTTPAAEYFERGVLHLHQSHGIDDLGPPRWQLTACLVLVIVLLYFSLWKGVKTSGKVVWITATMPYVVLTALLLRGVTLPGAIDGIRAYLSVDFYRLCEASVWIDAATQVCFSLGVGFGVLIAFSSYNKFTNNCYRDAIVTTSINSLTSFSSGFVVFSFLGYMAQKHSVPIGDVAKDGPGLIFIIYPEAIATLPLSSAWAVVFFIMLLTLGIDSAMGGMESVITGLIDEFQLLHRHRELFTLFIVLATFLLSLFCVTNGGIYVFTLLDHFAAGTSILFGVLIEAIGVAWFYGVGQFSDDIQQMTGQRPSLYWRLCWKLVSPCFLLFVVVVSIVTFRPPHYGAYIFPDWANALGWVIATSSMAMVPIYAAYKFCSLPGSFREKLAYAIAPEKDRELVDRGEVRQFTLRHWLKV
Platelet-activating factor receptor, sequence (P25105 whole entry): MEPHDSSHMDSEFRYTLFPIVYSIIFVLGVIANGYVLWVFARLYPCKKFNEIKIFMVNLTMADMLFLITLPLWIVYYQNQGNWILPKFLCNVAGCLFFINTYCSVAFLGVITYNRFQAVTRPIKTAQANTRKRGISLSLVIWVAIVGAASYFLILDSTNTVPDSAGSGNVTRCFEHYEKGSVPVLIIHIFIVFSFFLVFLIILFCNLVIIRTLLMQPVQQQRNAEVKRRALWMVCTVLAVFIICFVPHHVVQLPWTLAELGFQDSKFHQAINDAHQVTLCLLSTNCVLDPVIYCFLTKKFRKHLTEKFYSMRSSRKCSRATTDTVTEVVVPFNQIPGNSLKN

COc1cc(N)nc2[nH]c(-c3ccc(F)cc3)c(-c3ccncc3)c12
Not Active: IC50 [1] | IC50 (Leukotriene C4 synthase) | IC50 [2] | Ki [2] | IC50 [3] | Ki [3] | IC50 [4] | IC50 [5] | IC50 [6] | Ki [6] | IC50 [7] | IC50 [8]

CNS(=O)(=O)Cc1ccc2[nH]cc(CCN(C)C)c2c1
Not Active: IC50 [1] | IC50 (Leukotriene C4 synthase) | IC50 [2] | Ki [2] | IC50 [3] | Ki [3] | IC50 [4] | IC50 [5] | IC50 [6] | Ki [6] | IC50 [7] | IC50 [8]

CCCc1nn(C)c2c(=O)[nH]c(-c3cc(S(=O)(=O)N4CCN(C)CC4)ccc3OCC)nc12
Not Active: IC50 [1] | IC50 (Leukotriene C4 synthase) | IC50 [2] | Ki [2] | IC50 [3] | Ki [3] | IC50 [4] | IC50 [5] | IC50 [6] | Ki [6] | IC50 [7] | IC50 [8]

COc1ccc(/C=C/C(=O)Nc2ccccc2C(=O)O)cc1OC
Not Active: IC50 [1] | IC50 (Leukotriene C4 synthase) | IC50 [2] | Ki [2] | IC50 [3] | Ki [3] | IC50 [4] | IC50 [5] | IC50 [6] | Ki [6] | IC50 [7] | IC50 [8]

CCOC(N)=O
Not Active: IC50 [1] | IC50 (Leukotriene C4 synthase) | IC50 [2] | Ki [2] | IC50 [3] | Ki [3] | IC50 [4] | IC50 [5] | IC50 [6] | Ki [6] | IC50 [7] | IC50 [8]

CC(=O)Nc1nnc(S(N)(=O)=O)s1 [ACETAZOLAMIDE]
Not Active: IC50 [1] | IC50 (Leukotriene C4 synthase) | IC50 [4] | IC50 [5] | IC50 [7] | IC50 [8]

O=c1[nH]c2ccccc2n1CCCN1CCC(n2c(=O)[nH]c3cc(Cl)ccc32)CC1 [DOMPERIDONE]
Not Active: IC50 [1] | IC50 (Leukotriene C4 synthase) | IC50 [4] | IC50 [5] | IC50 [7] | IC50 [8]

CC1=C(CC(=O)O)c2cc(F)ccc2/C1=C\c1ccc(S(C)(=O)=O)cc1 [EXISULIND]
Not Active: IC50 [1] | IC50 (Leukotriene C4 synthase) | IC50 [2] | Ki [2] | IC50 [3] | Ki [3] | IC50 [4] | IC50 [5] | IC50 [6] | Ki [6] | IC50 [7] | IC50 [8]

CC(C)OC(=O)C(C)(C)Oc1ccc(C(=O)c2ccc(Cl)cc2)cc1 [FENOFIBRATE]
Not Active: IC50 [1] | IC50 (Leukotriene C4 synthase) | IC50 [4] | IC50 [7] | IC50 [8]

OCCN1CCN(CCCN2c3ccccc3Sc3ccc(C(F)(F)F)cc32)CC1 [FLUPHENAZINE]
Not Active: IC50 (Leukotriene C4 synthase) | IC50 [4] | IC50 [7] | IC50 [8]

CN1C2CCCC1CC(NC(=O)c1nn(C)c3ccccc13)C2 (stereo not drawn) [GRANISETRON]
Not Active: IC50 [1] | IC50 (Leukotriene C4 synthase) | IC50 [4] | IC50 [5] | IC50 [7] | IC50 [8]

Nc1nc2c(c(=O)[nH]1)N(C=O)C(CNc1ccc(C(=O)N[C@@H](CCC(=O)O)C(=O)O)cc1)CN2 (stereo partly drawn) [LEUCOVORIN]
Not Active: IC50 [1] | IC50 (Leukotriene C4 synthase) | IC50 [2] | Ki [2] | IC50 [3] | Ki [3] | IC50 [4] | IC50 [5] | IC50 [6] | Ki [6] | IC50 [7] | IC50 [8]

C[C@@H](O)[C@H]1C(=O)N2C(C(=O)O)=C(S[C@@H]3CN[C@H](C(=O)N(C)C)C3)[C@H](C)[C@H]12 [MEROPENEM]
Not Active: IC50 [1] | IC50 (Leukotriene C4 synthase) | IC50 [2] | Ki [2] | IC50 [3] | Ki [3] | IC50 [4] | IC50 [5] | IC50 [6] | Ki [6] | IC50 [7] | IC50 [8]

CC[C@@H](CO)NC(=O)[C@@H]1C=C2c3cccc4c3c(cn4C)C[C@H]2N(C)C1 [METHYSERGIDE]
Not Active: IC50 [1] | IC50 (Leukotriene C4 synthase) | IC50 [4] | IC50 [5] | IC50 [7] | IC50 [8]

CCN(CC)CC#CCOC(=O)C(O)(c1ccccc1)C1CCCCC1 (stereo not drawn) [OXYBUTYNIN]
Not Active: IC50 (Leukotriene C4 synthase) | IC50 [4] | IC50 [7] | IC50 [8]

O=P(O)(O)C(O)(Cc1cccnc1)P(=O)(O)O [RISEDRONIC ACID]
Not Active: IC50 [1] | IC50 (Leukotriene C4 synthase) | IC50 [2] | Ki [2] | IC50 [3] | Ki [3] | IC50 [4] | IC50 [5] | IC50 [6] | Ki [6] | IC50 [7] | IC50 [8]

CN(CCOc1ccc(CC2SC(=O)NC2=O)cc1)c1ccccn1 (stereo not drawn) [ROSIGLITAZONE]
Not Active: IC50 [1] | IC50 (Leukotriene C4 synthase) | IC50 [2] | Ki [2] | IC50 [3] | Ki [3] | IC50 [4] | IC50 [5] | IC50 [6] | Ki [6] | IC50 [7] | IC50 [8]

C=C(C)[C@H]1Cc2c(ccc3c2O[C@@H]2COc4cc(OC)c(OC)cc4[C@@H]2C3=O)O1 [ROTENONE]
Not Active: IC50 [1] | IC50 (Leukotriene C4 synthase) | IC50 [2] | Ki [2] | IC50 [3] | Ki [3] | IC50 [4] | IC50 [5] | IC50 [6] | Ki [6] | IC50 [7] | IC50 [8]

C#CCN(C)[C@H](C)Cc1ccccc1 [SELEGILINE]
Not Active: IC50 [1] | IC50 (Leukotriene C4 synthase) | IC50 [2] | Ki [2] | IC50 [3] | Ki [3] | IC50 [4] | IC50 [5] | IC50 [6] | Ki [6] | IC50 [7] | IC50 [8]

CO[C@H]1C[C@@H]2CC[C@@H](C)[C@@](O)(O2)C(=O)C(=O)N2CCCC[C@H]2C(=O)O[C@H]([C@H](C)C[C@@H]2CC[C@@H](O)[C@H](OC)C2)CC(=O)[C@H](C)/C=C(\C)[C@@H](O)[C@@H](OC)C(=O)[C@H](C)C[C@H](C)/C=C/C=C/C=C/1C [SIROLIMUS]
Not Active: IC50 [1] | IC50 (Leukotriene C4 synthase) | IC50 [2] | Ki [2] | IC50 [3] | Ki [3] | IC50 [4] | IC50 [5] | IC50 [6] | Ki [6] | IC50 [7] | IC50 [8]

CN[C@@H]1[C@H](O)[C@H](NC)[C@H]2O[C@@]3(O)C(=O)C[C@@H](C)O[C@H]3O[C@@H]2[C@H]1O [SPECTINOMYCIN]
Not Active: IC50 [1] | IC50 (Leukotriene C4 synthase) | IC50 [2] | Ki [2] | IC50 [3] | Ki [3] | IC50 [4] | IC50 [5] | IC50 [6] | Ki [6] | IC50 [7] | IC50 [8]

Nc1ccc(S(=O)(=O)Nc2ncccn2)cc1 [SULFADIAZINE]
Not Active: IC50 [1] | IC50 (Leukotriene C4 synthase) | IC50 [2] | Ki [2] | IC50 [3] | Ki [3] | IC50 [4] | IC50 [5] | IC50 [6] | Ki [6] | IC50 [7] | IC50 [8]

O=c1n(CCCN2CCN(c3cccc(Cl)c3)CC2)nc2ccccn12 [TRAZODONE]
Not Active: IC50 [1] | IC50 (Leukotriene C4 synthase) | IC50 [4] | IC50 [5] | IC50 [7] | IC50 [8]
